Data taken from US20210123061A1, “METHODS AND COMPOSITIONS FOR TREATING INFLAMMATORY DISEASE OR DISORDER” (THE BRIGHAM AND WOMEN'S HOSPITAL, INC., priority 2018, published 2021).

Test system: RXXpS/T, RPS6-pSer235/236, PRAS40-pThr246
Test: Immunoblot of RXXpS/T motif, RPS6 and PRAS40 phosphorylation in macrophages
Format: cell-based, human
Procedure: FIGS. 6A-6C show phospho-proteomics identified RSK substrates in human PBMC-derived macrophages. (FIG. 6A) Scheme of phospho-proteomics. Human PBMC-derived macrophages were treated with DMSO or BI-D1870 for two hours followed by IFN-γ stimulation for subsequent proteolysis and phospho-peptide enrichment using the anti-RXXpS/T antibody strategy. (FIG. 6B) Cell lysates were subjected to immunoblot analysis with anti-RPS6-pSer235/236, anti-RPS6, anti-PRAS40-pThr246, anti-PRAS40, or anti-Tubulin. N=2 donors. […] The average shortest distance of the same number of randomly selected genes to disease genes was calculated for N=250 realizations in order to compare the average shortest distance value to random expectation. Empirical p-values were calculated based on 100 degree-preserved randomizations of the first neighbor networks.
FIGS. 15A-15C show RXXpS/T pattern in human IFN-γ-stimulated macrophages. (FIG. 15A) Human PBBMC-derived macrophages were treated with DMSO or 10 μM BI-D1870 for 2 hours followed by stimulation with IFN-γ for 1 hour. Cell lysates were subjected to immunoblot analysis with anti-RXXpS/T antibody. (FIG. 15B) Four ellipse Venn diagram showing numbers of detected phospho-peptides in each sample. (FIG. 15C) A flow chart of screening for RSK-substrates in human macrophages. We identified 24 candidates including RPS6 and AKT1S1/PRAS40 as RSK-substrates. […]

CC(C)CCN1c2nc(Nc3cc(F)c(O)c(F)c3)ncc2N(C)C(=O)C1C (centres unmarked) [BI-D1870]
anti-RXXpS/T immunoblot signal intensities (10 μM for 2 hours, then IFN-γ 1 hour): decrease in signal intensities
RPS6-pSer235/236 and PRAS40-pThr246 immunoblot (IFN-γ versus RSK-inhibition, two donors): confirming the changes
